Test system: MDA-MB-231 complex spheroid viability
Experiment: Anticancer human tumor MDA-MB-231/ATCC cell line growth inhibition;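 also: drug exposure lasted 7 days starting on day 3 of spheroid growth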
Settings: for IC50: curve of first compound; for viability, T/C: stronger effect = lower value
Outline: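 Complex spheroids of tumor cells with HUVEC and human MSCs, exposed to iadademstat combined with other agents. Each agent tested in half-log steps from near clinical Cmax (else 10 microM top), DMSO ≤0.25%.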

[1] = second compound 0.1 µM, first compound 0.00949 µM
[2] = second compound 0.1 µM, first compound 0.03 µM
[3] = second compound 0.1 µM, first compound 0.0949 µM
[4] = second compound 0.1 µM, first compound 0.3 µM
[5] = second compound 0.316 µM, first compound 0.00949 µM
[6] = second compound 0.316 µM, first compound 0.03 µM
[7] = second compound 0.316 µM, first compound 0.0949 µM
[8] = second compound 0.316 µM, first compound 0.3 µM
[9] = second compound 1 µM, first compound 0.00949 µM
[10] = second compound 1 µM, first compound 0.03 µM
[11] = second compound 1 µM, first compound 0.0949 µM
[12] = second compound 1 µM, first compound 0.3 µM
[13] = second compound 3.16 µM, first compound 0.00949 µM
[14] = second compound 3.16 µM, first compound 0.03 µM
[15] = second compound 3.16 µM, first compound 0.0949 µM
[16] = second compound 3.16 µM, first compound 0.3 µM
[17] = second compound 10 µM, first compound 0.00949 µM
[18] = second compound 10 µM, first compound 0.03 µM
[19] = second compound 10 µM, first compound 0.0949 µM
[20] = second compound 10 µM, first compound 0.3 µM

## CCN(c1cc(-c2ccc(CN3CCOCC3)cc2)cc(C(=O)NCc2c(C)cc(C)[nH]c2=O)c1C)C1CCOCC1 + NC1CC1c1ccc(-c2cccc(O)c2)cc1
Second compound 0.1 µM
  IC50: 143 nM
Second compound 0.316 µM
  IC50: 99.7 nM
Second compound 1 µM
  IC50: 99.7 nM
Second compound 3.16 µM
  IC50: 92 nM
Second compound 10 µM
  IC50: 13.1 nM
[1]
  viability, T/C: 89.6%
[2]
  viability, T/C: 82%
[3]
  viability, T/C: 51.3%
[4]
  viability, T/C: 40%
Second compound 0.1 µM, first compound 0.949 µM
  viability, T/C: 27.8%
Second compound 0.1 µM, first compound 3 µM
  viability, T/C: 17.8%
[5]
  viability, T/C: 73.1%
[6]
  viability, T/C: 70.2%
[7]
  viability, T/C: 46.2%
[8]
  viability, T/C: 36.4%
Second compound 0.316 µM, first compound 0.949 µM
  viability, T/C: 25.2%
Second compound 0.316 µM, first compound 3 µM
  viability, T/C: 16.6%
[9]
  viability, T/C: 68.2%
[10]
  viability, T/C: 69.7%
[11]
  viability, T/C: 46.7%
[12]
  viability, T/C: 35.1%
Second compound 1 µM, first compound 0.949 µM
  viability, T/C: 23.9%
Second compound 1 µM, first compound 3 µM
  viability, T/C: 17.1%
[13]
  viability, T/C: 72.5%
[14]
  viability, T/C: 71.6%
[15]
  viability, T/C: 44.7%
[16]
  viability, T/C: 34.3%
Second compound 3.16 µM, first compound 0.949 µM
  viability, T/C: 21.8%
Second compound 3.16 µM, first compound 3 µM
  viability, T/C: 16.6%
[17]
  viability, T/C: 52.6%
[18]
  viability, T/C: 43.1%
[19]
  viability, T/C: 34.3%
[20]
  viability, T/C: 24.6%
Second compound 10 µM, first compound 0.949 µM
  viability, T/C: 16.8%
Second compound 10 µM, first compound 3 µM
  viability, T/C: 12.2%

## Cn1ncnc1C1c2n[nH]c(=O)c3cc(F)cc(c23)NC1c1ccc(F)cc1 (stereo not given) + NC1CC1c1ccc(-c2cccc(O)c2)cc1
Second compound 0.1 µM
  IC50: > 100 nM
Second compound 0.316 µM
  IC50: 49 nM
Second compound 1 µM
  IC50: 48.1 nM
Second compound 3.16 µM
  IC50: 51.5 nM
Second compound 10 µM
  IC50: 0.479 nM
Second compound 0.1 µM, first compound 0.000316 µM
  viability, T/C: 86.3%
Second compound 0.1 µM, first compound 0.001 µM
  viability, T/C: 87.6%
Second compound 0.1 µM, first compound 0.00316 µM
  viability, T/C: 74.2%
Second compound 0.1 µM, first compound 0.01 µM
  viability, T/C: 77%
Second compound 0.1 µM, first compound 0.0316 µM
  viability, T/C: 62.4%
Second compound 0.1 µM, first compound 0.1 µM
  viability, T/C: 60.4%
Second compound 0.316 µM, first compound 0.000316 µM
  viability, T/C: 64.4%
Second compound 0.316 µM, first compound 0.001 µM
  viability, T/C: 61%
Second compound 0.316 µM, first compound 0.00316 µM
  viability, T/C: 60.6%
Second compound 0.316 µM, first compound 0.01 µM
  viability, T/C: 57.1%
Second compound 0.316 µM, first compound 0.0316 µM
  viability, T/C: 56.2%
Second compound 0.316 µM, first compound 0.1 µM
  viability, T/C: 42.7%
Second compound 1 µM, first compound 0.000316 µM
  viability, T/C: 62.4%
Second compound 1 µM, first compound 0.001 µM
  viability, T/C: 61.5%
Second compound 1 µM, first compound 0.00316 µM
  viability, T/C: 57.2%
Second compound 1 µM, first compound 0.01 µM
  viability, T/C: 51.2%
Second compound 1 µM, first compound 0.0316 µM
  viability, T/C: 53.5%
Second compound 1 µM, first compound 0.1 µM
  viability, T/C: 47.4%
Second compound 3.16 µM, first compound 0.000316 µM
  viability, T/C: 66.6%
Second compound 3.16 µM, first compound 0.001 µM
  viability, T/C: 69.4%
Second compound 3.16 µM, first compound 0.00316 µM
  viability, T/C: 67.4%
Second compound 3.16 µM, first compound 0.01 µM
  viability, T/C: 55.3%
Second compound 3.16 µM, first compound 0.0316 µM
  viability, T/C: 49.2%
Second compound 3.16 µM, first compound 0.1 µM
  viability, T/C: 48.7%
Second compound 10 µM, first compound 0.000316 µM
  viability, T/C: 51.9%
Second compound 10 µM, first compound 0.001 µM
  viability, T/C: 46.5%
Second compound 10 µM, first compound 0.00316 µM
  viability, T/C: 43%
Second compound 10 µM, first compound 0.01 µM
  viability, T/C: 42.5%
Second compound 10 µM, first compound 0.0316 µM
  viability, T/C: 33.1%
Second compound 10 µM, first compound 0.1 µM
  viability, T/C: 32.2%

## Nc1ncn(C2CC(O)C(CO)S2)c(=O)n1 (stereo not given) + NC1CC1c1ccc(-c2cccc(O)c2)cc1
Second compound 0.1 µM
  IC50: 7.45 nM
Second compound 0.316 µM
  IC50: 5.79 nM
Second compound 1 µM
  IC50: 3.18 nM
Second compound 3.16 µM
  IC50: 4.17 nM
Second compound 10 µM
  IC50: 1.08 nM
Second compound 0.1 µM, first compound 0.000949 µM
  viability, T/C: 68.5%
Second compound 0.1 µM, first compound 0.003 µM
  viability, T/C: 61.9%
[1]
  viability, T/C: 45.6%
[2]
  viability, T/C: 32.4%
[3]
  viability, T/C: 17%
[4]
  viability, T/C: 11.3%
Second compound 0.316 µM, first compound 0.000949 µM
  viability, T/C: 60.4%
Second compound 0.316 µM, first compound 0.003 µM
  viability, T/C: 59.5%
[5]
  viability, T/C: 43.5%
[6]
  viability, T/C: 27.6%
[7]
  viability, T/C: 17.8%
[8]
  viability, T/C: 9.51%
Second compound 1 µM, first compound 0.000949 µM
  viability, T/C: 54%
Second compound 1 µM, first compound 0.003 µM
  viability, T/C: 53.4%
[9]
  viability, T/C: 39.1%
[10]
  viability, T/C: 28.5%
[11]
  viability, T/C: 18.3%
[12]
  viability, T/C: 10.4%
Second compound 3.16 µM, first compound 0.000949 µM
  viability, T/C: 59.4%
Second compound 3.16 µM, first compound 0.003 µM
  viability, T/C: 53.7%
[13]
  viability, T/C: 41.1%
[14]
  viability, T/C: 31%
[15]
  viability, T/C: 16.1%
[16]
  viability, T/C: 9.57%
Second compound 10 µM, first compound 0.000949 µM
  viability, T/C: 51.1%
Second compound 10 µM, first compound 0.003 µM
  viability, T/C: 41.2%
[17]
  viability, T/C: 28.2%
[18]
  viability, T/C: 19.5%
[19]
  viability, T/C: 12.1%
[20]
  viability, T/C: 9.21%
